The values below come from patent publication US10654834B2 (Venenum Biodesign, LLC, priority 2016, dated 2020).

One may read the EC50 as the concentration at which the effect is half-maximal.

The target of one test is T1, mouse TGR5 receptor (Mus musculus, UniProt Q80SS6).
T1 construct: host or cells: HEK293-EBNA (293 c18, ATCC CRL10852)
T1 sequence (Q80SS6 1-329): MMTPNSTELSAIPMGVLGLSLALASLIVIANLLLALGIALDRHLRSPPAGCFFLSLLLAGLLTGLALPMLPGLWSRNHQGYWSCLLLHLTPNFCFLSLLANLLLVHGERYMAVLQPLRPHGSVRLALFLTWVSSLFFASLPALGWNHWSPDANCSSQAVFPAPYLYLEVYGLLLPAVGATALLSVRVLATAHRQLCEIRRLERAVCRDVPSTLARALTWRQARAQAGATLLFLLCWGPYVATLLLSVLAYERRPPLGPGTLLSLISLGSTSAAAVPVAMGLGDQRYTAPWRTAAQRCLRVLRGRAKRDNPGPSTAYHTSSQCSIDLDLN
In words: Mouse TGR5 HTRF cAMP production assay (HEK293-EBNA cells, Cisbio cAMP HiRange kit). The note with it: HEK293-EBNA cells overexpressing mouse TGR5, HTRF cAMP assay. In kind it is cell-based. In outline: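 cAMP accumulation was read by competitive HTRF after 1 h room-temperature compound treatment, with a further 1 h conjugate incubation. Cells were mouse TGR5-overexpressing HEK293-EBNA in serum-free DMEM plus 500 μM IBMX. Compounds ran as 12-point half-log series in duplicate, and EC50 values were reported.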

A further test has as its target T2, human TGR5 receptor (Homo sapiens, UniProt Q8TDU6).
T2 construct: host or cells: CHO-K1 (hTGR5-CHO)
T2 sequence (Q8TDU6 1-330): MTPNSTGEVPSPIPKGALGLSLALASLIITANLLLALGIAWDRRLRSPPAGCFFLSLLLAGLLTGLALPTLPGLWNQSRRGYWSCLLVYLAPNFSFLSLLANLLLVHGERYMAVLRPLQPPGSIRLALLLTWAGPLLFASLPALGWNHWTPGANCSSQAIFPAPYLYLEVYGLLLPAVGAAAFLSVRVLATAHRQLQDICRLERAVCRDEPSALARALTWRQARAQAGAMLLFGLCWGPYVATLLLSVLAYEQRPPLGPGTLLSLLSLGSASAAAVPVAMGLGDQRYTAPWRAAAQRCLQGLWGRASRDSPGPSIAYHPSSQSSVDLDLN
In words: Human TGR5 cAMP production assay (hTGR5-CHO cells, DiscoveRx cAMP XS+ kit). In kind it is cell-based. The note with it: luminescent cAMP assay, read-out: Human TGR5 Lum. cAMP Activity (EC50). In short, it runs like this:
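EC50 values come from luminescent enzyme-complementation cAMP detection, read after overnight incubation. Beforehand, hTGR5-expressing CHO-K1 cells with IBMX and anti-cAMP antibody were exposed 1 h at room temperature to serially diluted (half-log) compounds.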
(In general: Cyclic AMP is a second messenger, typically raised through Gs and lowered through Gi signalling.)

As for `N#Cc1ccc(CCNC(=O)[C@@H]2CCCN2c2cc(-c3ccc(CCC(=O)N[C@@H](CCCNC(=N)N)C(=O)O)cc3)cc(C(F)(F)F)n2)cc1` [Compound 207, (S)-2-(3-(4-(2-((S)-2-((4-cyanophenethyl)carbamoyl)pyrrolidin-1-yl)-6-(trifluoromethyl)pyridin-4-yl)phenyl)propanamido)-5-guanidino-pentanoic acid], the EC50 at mouse TGR5 receptor was less than 0.1 µM; on human TGR5 receptor it was 0.1 to 0.999 µM.
The matching figures for `N#Cc1ccc(CCNC(=O)[C@@H]2CCCN2c2cc(-c3ccc(COCC(=O)O)cc3)cc(C(F)(F)F)n2)cc1` [Compound 208, (S)-2-((4-(2-(2-((4-cyanophenethyl)carbamoyl)pyrrolidin-1-yl)-6-(trifluoromethyl)pyridin-4-yl)benzyl)oxy)acetic acid]: less than 0.1 µM and 0.1 to 0.999 µM.
The matching figures for `N#Cc1ccc(CCNC(=O)[C@@H]2CCCN2c2cc(-c3ccc(COCC(=O)NCS(=O)(=O)O)cc3)cc(C(F)(F)F)n2)cc1` [Compound 209, (S)-(2-((4-(2-(2-((4-cyanophenethyl)carbamoyl)pyrrolidin-1-yl)-6-(trifluoromethyl)pyridin-4-yl)benzyl)oxy)acetamido)methanesulfonic acid]: less than 0.1 µM and less than 0.1 µM.
On to `O=C(O)CCCC1CCN(c2cc(N3C[C@H](O)C[C@H]3C(=O)NCCc3ccc(C(F)(F)F)cc3)nc(C(F)(F)F)n2)CC1` [Compound 212, 4-(1-(6-((2S,4R)-4-hydroxy-2-((4-(trifluoromethyl)phenethyl)carbamoyl)pyrrolidin-1-yl)-2-(trifluoromethyl)pyrimidin-4-yl)piperidin-4-yl)butanoic acid], for which the EC50 at mouse TGR5 receptor is less than 0.1 µM; on human TGR5 receptor it was 0.1 to 0.999 µM.
The matching figures for `N#Cc1ccc(CCNC(=O)[C@@H]2CC(F)(F)CN2c2cc(N3CCC(CCNC(=O)NCCS(=O)(=O)O)CC3)nc(C(F)(F)F)n2)cc1` [Compound 216, (S)-2-(3-(2-(1-(6-(2-((4-cyanophenethyl)carbamoyl)-4,4-difluoropyrrolidin-1-yl)-2-(trifluoromethyl)pyrimidin-4-yl)piperidin-4-yl)ethyl)ureido)ethanesulfonic acid]: 0.1 to 0.999 µM and 0.1 to 0.999 µM.
As for `N#Cc1ccc(CCNC(=O)[C@@H]2CCN2c2cc(N3CCN(CCO)CC3)nc(C(F)(F)F)n2)cc1` [Compound 224, (S)-N-(4-cyanophenethyl)-1-(6-(4-(2-hydroxyethyl)piperazin-1-yl)-2-(trifluoromethyl)pyrimidin-4-yl)azetidine-2-carboxamide], the values for the EC50 on mouse TGR5 receptor and at human TGR5 receptor were less than 0.1 µM and 0.1 to 0.999 µM, respectively.
`COCCC1CCN(c2cc(N3CC[C@H]3C(=O)NCCc3ccc(C#N)cc3)nc(C(F)(F)F)n2)CC1` [Compound 225, (S)-N-(4-cyanophenethyl)-1-(6-(4-(2-methoxyethyl)piperidin-1-yl)-2-(trifluoromethyl)pyrimidin-4-yl)azetidine-2-carboxamide]: the half-maximal effective concentration (EC50) at mouse TGR5 receptor and at human TGR5 receptor was less than 0.1 µM each time.
Consider `CN(C)CCN1CCN(c2cc(N3CC[C@H]3C(=O)NCCc3ccc(C#N)cc3)nc(C(F)(F)F)n2)CC1` [Compound 226, (S)-N-(4-cyanophenethyl)-1-(6-(4-(2-(dimethylamino)ethyl)piperazin-1-yl)-2-(trifluoromethyl)pyrimidin-4-yl)azetidine-2-carboxamide], for which the EC50 on mouse TGR5 receptor and on human TGR5 receptor was 0.1 to 0.999 µM in each case.
With `O=C(O)CCCC1CCN(c2cc(N3CC[C@H]3C(=O)NCCc3ccc(C(F)(F)F)cc3)nc(C(F)(F)F)n2)CC1` [Compound 233, (S)-4-(1-(2-(trifluoromethyl)-6-(2-((4-(trifluoromethyl)phenethyl)carbamoyl)azetidin-1-yl)pyrimidin-4-yl)piperidin-4-yl)butanoic acid], the EC50 on mouse TGR5 receptor and at human TGR5 receptor was less than 0.1 µM in each case.
Regarding `COc1cc(C(F)(F)F)ccc1CCNC(=O)[C@@H]1CCN1c1cc(N2CCC(CO)CC2)nc(C(F)(F)F)n1` [Compound 237, (S)-1-(6-(4-(hydroxymethyl)piperidin-1-yl)-2-(trifluoromethyl)pyrimidin-4-yl)-N-(2-methoxy-4-(trifluoromethyl)phenethyl)azetidine-2-carboxamide], the EC50 on mouse TGR5 receptor and on human TGR5 receptor was less than 0.1 µM throughout.
As to `N#Cc1ccc(CCNC(=O)[C@@H]2CCN2c2cc(N3CCC(CCN)CC3)nc(C(F)(F)F)n2)cc1` [Compound 246, (S)-1-(6-(4-(2-aminoethyl)piperidin-1-yl)-2-(trifluoromethyl)pyrimidin-4-yl)-N-(4-cyanophenethyl)azetidine-2-carboxamide], the EC50 on mouse TGR5 receptor and at human TGR5 receptor was less than 0.1 µM each time.
Take `N#Cc1ccc(CCNC(=O)[C@@H]2CCN2c2cc(N3CCC(CCCC(=O)N[C@@H](CCCNC(=N)N)C(=O)O)CC3)nc(C(F)(F)F)n2)cc1` [Compound 251, (S)-2-(4-(1-(6-((S)-2-((4-cyanophenethyl)carbamoyl)azetidin-1-yl)-2-(trifluoromethyl)pyrimidin-4-yl)piperidin-4-yl)butanamido)-5-guanidinopentanoic acid]: the EC50 on mouse TGR5 receptor and at human TGR5 receptor was less than 0.1 µM each time.
Take `CN(CCS(=O)(=O)O)C(=O)CCC1CCN(c2cc(N3CC[C@H]3C(=O)NCCc3ccc(C(F)(F)F)cc3)nc(C(F)(F)F)n2)CC1` [Compound 252, (S)-2-(N-methyl-3-(1-(2-(trifluoromethyl)-6-(2-((4-(trifluoromethyl)phenethyl)carbamoyl)azetidin-1-yl)pyrimidin-4-yl)piperidin-4-yl)propanamido)ethanesulfonic acid]: the EC50 on mouse TGR5 receptor and on human TGR5 receptor was less than 0.1 µM throughout.
For `O=C(CCC1CCN(c2cc(N3CC[C@H]3C(=O)NCCc3ccc(C(F)(F)F)cc3)nc(C(F)(F)F)n2)CC1)NCCS(=O)(=O)O` [Compound 254, (S)-2-(3-(1-(2-(trifluoromethyl)-6-(2-((4-(trifluoromethyl)-phenethyl)carbamoyl)azetidin-1-yl)pyrimidin-4-yl)piperidin-4-yl)propanamido)ethanesulfonic acid], the concentration for a half-maximal effect (EC50) at mouse TGR5 receptor is less than 0.1 µM; on human TGR5 receptor, 0.1 to 0.999 µM.
The matching figures for `CCOC(=O)CCNC(=O)NCCC1CCN(c2cc(N3CC[C@H]3C(=O)NCCc3ccc(C#N)cc3)nc(C(F)(F)F)n2)CC1` [Compound 267, (S)-ethyl 3-(3-(2-(1-(6-(2-((4-cyanophenethyl)carbamoyl)azetidin-1-yl)-2-(trifluoromethyl)pyrimidin-4-yl)piperidin-4-yl)ethyl)ureido)propanoate]: less than 0.1 µM and less than 0.1 µM.
The matching figures for `COC(=O)[C@@H](N)CCCCNC(=O)NCCC1CCN(c2cc(N3CC[C@H]3C(=O)NCCc3ccc(C#N)cc3)nc(C(F)(F)F)n2)CC1` [Compound 274, (S)-methyl 2-amino-6-(3-(2-(1-(6-((S)-2-((4-cyanophenethyl)carbamoyl)azetidin-1-yl)-2-(trifluoromethyl)pyrimidin-4-yl)piperidin-4-yl)ethyl)ureido)hexanoate]: less than 0.1 µM and less than 0.1 µM.
`O=C(NCCc1ccc(C(F)(F)F)cc1)[C@@H]1CCN1c1cc(N2CCC(CCCC3CCNCC3)CC2)nc(C(F)(F)F)n1` [Compound 275, (S)-1-(6-(4-(3-(piperidin-4-yl)propyl)piperidin-1-yl)-2-(trifluoromethyl)pyrimidin-4-yl)-N-(4-(trifluoromethyl)phenethyl)azetidine-2-carboxamide]: the values for the EC50 at mouse TGR5 receptor and at human TGR5 receptor were 0.1 to 0.999 µM and less than 0.1 µM, respectively.
The matching figures for `O=C(CS(=O)(=O)O)NCCC1CCN(c2cc(N3CC[C@H]3C(=O)NCCc3ccc(C(F)(F)F)cc3)nc(C(F)(F)F)n2)CC1` [Compound 279, (S)-2-oxo-2-((2-(1-(2-(trifluoromethyl)-6-(2-((4-(trifluoromethyl)phenethyl)carbamoyl)azetidin-1-yl)pyrimidin-4-yl)piperidin-4-yl)ethyl)amino)-ethanesulfonic acid]: less than 0.1 µM and less than 0.1 µM.
The matching figures for `O=C(NCCc1ccc(C(F)(F)F)cc1)[C@@H]1CCN1c1cc(N2CCC(CCCC3CCN(C(=O)CS(=O)(=O)O)CC3)CC2)nc(C(F)(F)F)n1` [Compound 280, (S)-2-oxo-2-(4-(3-(1-(2-(trifluoromethyl)-6-(2-((4-(trifluoromethyl)phenethyl)carbamoyl)azetidin-1-yl)pyrimidin-4-yl)piperidin-4-yl)propyl)piperidin-1-yl)ethanesulfonic acid]: less than 0.1 µM and 0.1 to 0.999 µM.
